Earlier results on 1 molecule are cited in US20030229111A1, “Naltrexone hydrochloride compositions” (priority 2002, published 2003).

Molecules are shown by their SMILES.

For series [1] the following is noted: in vivo, po.

In the case of `O=C1CC[C@@]2(O)[C@H]3Cc4ccc(O)c5c4[C@@]2(CCN3CC2CC2)[C@H]1O5` [naltrexone, Naltrexone], the protein binding result is on record as “approximately 21%”. Moreover, the “time within which rapidly absorbed” value in series [1] is at most 1 h.
